# Experimental data as given in US12410136B2, “Pyridinyl morpholine compound, preparation method therefor, and application thereof” (SHANGHAI ZHONGZE THERAPEUTICS, CO. LTD., priority 2020, dated 2025).
# How the values were obtained:
# [1] = target: T1, human recombinant D3 receptor (Homo sapiens, UniProt P35462); experiment: Dopamine D3 receptor binding test; conditions: [3H]methyl-spiperone 0.3 nM, human recombinant D3 receptor expressed in CHO cells; read-out: Affinity of the compound for each receptor (Ki value, nM) D3
# T1 construct: expressed in transfected cells; host or cells: CHO
# Description: Dopamine D3 Receptor Binding Test
# [^3H]methyl-spiperone (0.3 nM) was used as the ligand, and (+)-butaclamol (10 μM) was used to determine the non-specific binding, and the binding assay was performed on human recombinant D3 receptor (expressed in CHO cells).
# 5-HT2A receptor = target: T2, 5-HT2A receptor (Homo sapiens, UniProt P28223); experiment: 5-HT2A receptor binding test; conditions: [3H]-Ketanserin, 5-HT2A receptor expressed in HEK293 cells; read-out: Affinity of the compound for each receptor (Ki value, nM) 5-HT2A
# T2 construct: expressed in transfected cells; host or cells: HEK293
# Description: 5-HT2A Receptor Binding Test
# Beckman LS-6500 multifunctional liquid scintillation counter.
# Tris-HCl reaction buffer (pH 7.7) was used to resuspend in the experiment.
# H1 receptor = target: T3, H1 receptor (Homo sapiens, UniProt P35367); experiment: H1 receptor binding test; conditions: 1 nM [3H]pyrilamine, HEK-293 cell membrane homogenate; read-out: Affinity of the compound for H1 receptor (Ki value, nM) H1
# T3 construct: expressed in transfected cells; host or cells: HEK-293
# Description: Non-specific binding was determined in the presence of 1 μM pyrilamine.
# D2 receptor = D2 receptor (Homo sapiens, UniProt P14416); experiment: Dopamine D2 receptor binding test
# Chain of D2 receptor (P14416 whole entry): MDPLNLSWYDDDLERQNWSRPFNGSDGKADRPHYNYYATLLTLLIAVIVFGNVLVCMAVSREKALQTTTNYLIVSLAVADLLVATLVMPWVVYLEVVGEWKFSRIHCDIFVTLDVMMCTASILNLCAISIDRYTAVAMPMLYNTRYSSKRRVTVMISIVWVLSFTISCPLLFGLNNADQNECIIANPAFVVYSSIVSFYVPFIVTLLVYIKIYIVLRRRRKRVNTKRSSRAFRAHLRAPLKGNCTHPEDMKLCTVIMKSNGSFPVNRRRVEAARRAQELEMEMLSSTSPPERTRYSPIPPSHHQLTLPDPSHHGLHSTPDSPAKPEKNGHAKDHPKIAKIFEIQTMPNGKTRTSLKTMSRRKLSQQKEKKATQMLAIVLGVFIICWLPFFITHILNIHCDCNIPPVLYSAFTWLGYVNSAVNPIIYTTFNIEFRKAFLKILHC
# Description: Dopamine D2 Receptor Binding Test
# In this experiment, HEK293 cells were transfected with plasmid vector containing D2 receptor protein gene, and calcium phosphate transfection method was used and after transfection, the cells were cultured in a culture solution containing G418, and the cell monoclonal and radioligand binding experiments were selected, and finally a stable cell line which could stably express D2 receptor protein was obtained.
# HeK-293 cells were infected with recombinant viruses containing the above various genes respectively, and after 48-72 hours, the receptor proteins were expressed in large quantities on the membrane, and the cells were centrifuged at 1000 rpm for 5 min and then the culture solution was discarded, and the cells were collected, and stored in a −20° C. refrigerator for later use. Tris-HCl reaction buffer (pH=7.5) was used to resuspend in the experiment.
# On the Millipore cell sample collector, the mixture was quickly filtrated under reduced pressure through GF/C glass fiber filter paper, and eluted with 3 mL of eluent (50 mMTris-HCl, pH 7.5) for 3 times, then dried under microwave for 5 to 6 min. The filter paper was moved into a 0.5 mL centrifuge tube, and 500 μL of lipid-soluble scintillation solution was added. The mixture was kept in the dark for more than 30 min, and the radioactivity intensity was determined by counting. […] Two replicate tubes were made for each experiment of compound, and two separate experiments were performed.
# Two tubes were tested for each concentration and two independent tests were performed for each compound.
# T1 sequence (P35462 whole entry): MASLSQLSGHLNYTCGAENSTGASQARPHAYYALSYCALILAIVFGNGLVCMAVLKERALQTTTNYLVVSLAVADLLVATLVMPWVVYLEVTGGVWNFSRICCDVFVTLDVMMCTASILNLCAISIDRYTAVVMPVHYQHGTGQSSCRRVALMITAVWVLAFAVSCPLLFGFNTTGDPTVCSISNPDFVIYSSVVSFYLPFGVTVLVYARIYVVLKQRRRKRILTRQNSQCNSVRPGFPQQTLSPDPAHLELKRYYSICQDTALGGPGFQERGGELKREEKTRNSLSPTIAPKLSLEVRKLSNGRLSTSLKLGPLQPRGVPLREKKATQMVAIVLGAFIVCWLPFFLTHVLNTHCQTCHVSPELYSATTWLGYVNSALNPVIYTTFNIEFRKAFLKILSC
# T2 sequence (P28223 whole entry): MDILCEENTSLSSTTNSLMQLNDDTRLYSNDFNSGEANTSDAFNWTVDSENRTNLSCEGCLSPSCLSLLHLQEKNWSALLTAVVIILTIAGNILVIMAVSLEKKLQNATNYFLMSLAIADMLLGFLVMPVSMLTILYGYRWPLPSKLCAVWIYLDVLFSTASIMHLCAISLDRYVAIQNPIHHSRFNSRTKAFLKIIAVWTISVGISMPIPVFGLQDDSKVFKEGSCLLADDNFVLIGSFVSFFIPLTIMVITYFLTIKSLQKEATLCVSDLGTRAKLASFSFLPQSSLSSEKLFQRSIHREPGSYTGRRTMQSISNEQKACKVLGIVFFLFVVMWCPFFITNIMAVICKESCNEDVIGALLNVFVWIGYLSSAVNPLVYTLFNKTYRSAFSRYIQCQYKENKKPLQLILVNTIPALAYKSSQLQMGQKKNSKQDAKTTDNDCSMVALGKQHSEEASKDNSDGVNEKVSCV
# T3 sequence (P35367 whole entry): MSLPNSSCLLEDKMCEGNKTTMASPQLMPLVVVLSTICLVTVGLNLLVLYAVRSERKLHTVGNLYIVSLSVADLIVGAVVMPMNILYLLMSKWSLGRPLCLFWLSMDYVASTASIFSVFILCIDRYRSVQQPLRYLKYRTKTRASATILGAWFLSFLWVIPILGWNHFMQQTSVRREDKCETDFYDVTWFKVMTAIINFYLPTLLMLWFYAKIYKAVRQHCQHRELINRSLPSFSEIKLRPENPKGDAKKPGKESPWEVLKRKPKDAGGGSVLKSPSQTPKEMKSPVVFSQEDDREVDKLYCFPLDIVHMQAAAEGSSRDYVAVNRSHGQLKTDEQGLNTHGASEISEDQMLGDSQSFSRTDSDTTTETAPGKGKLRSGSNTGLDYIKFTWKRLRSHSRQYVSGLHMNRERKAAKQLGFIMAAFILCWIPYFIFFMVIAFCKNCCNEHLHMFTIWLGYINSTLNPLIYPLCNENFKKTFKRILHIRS
Ki [1],Ki (5-HT2A receptor),Ki (H1 receptor),Ki (D2 receptor),Compound
0.07 nM,5 nM,800 nM,7.1 nM,"CN(C)C(=O)N[C@H]1CC[C@H](CCN2CCN(c3cc(-c4ccco4)cc(N4CCOCC4)n3)CC2)CC1 [Compound V-3, 3-(trans-4-(2-(4-(4-(furan-2-yl)-6-morpholinopyridin-2-yl)piperazin-1-yl)ethyl)cyclohexyl)-1,1-dimethylurea]"
0.1 nM,0.9 nM,590 nM,2 nM,"CN(C)C(=O)N[C@H]1CC[C@H](CCN2CCN(c3cc(-c4cccs4)cc(N4CCOCC4)n3)CC2)CC1 [VI-4, 1,1-dimethyl-3-(trans-4-(2-(4-(6-morpholino-4-(thiophen-2-yl)pyridin-2-yl)piperazin-1-yl)ethyl)cyclohexyl)urea]"
0.1 nM,3.6 nM,790 nM,2 nM,CN(C)C(=O)N[C@H]1CC[C@H](CCN2CCN(c3cc(-c4cccnc4)cc(N4CCOCC4)n3)CC2)CC1 [IV-3]
0.28 nM,3.2 nM,460 nM,4.5 nM,"CCC(=O)N[C@H]1CC[C@H](CCN2CCN(c3cc(-c4ccc[nH]4)cc(N4CCOCC4)n3)CC2)CC1 [VII-1, N-(trans-4-(2-(4-(6-morpholino-4-(1H-pyrrol-2-yl)pyridin-2-yl)piperazin-1-yl)ethyl)cyclohexyl)propionamide]"
,6.6 nM,980 nM,11.8 nM,"COc1ccc(-c2cc(N3CCOCC3)nc(N3CCN(CC[C@H]4CC[C@H](NC(=O)N5CCN(C)CC5)CC4)CC3)c2)cc1 [III-4, N-(trans-4-(2-(4-(4-(4-methoxyphenyl)-6-morpholinopyridin-2-yl)piperazin-1-yl)ethyl)cyclohexyl)-4-methylpiperazine-1-carboxamide]"
0.2 nM,2.3 nM,670 nM,1.7 nM,"O=C(N[C@H]1CC[C@H](CCN2CCN(c3cc(-c4ccc(F)cc4)cc(N4CCOCC4)n3)CC2)CC1)c1ccccc1 [II-1, N-(trans-4-(2-(4-(4-(4-fluorophenyl)-6-morpholinopyridin-2-yl)piperazin-1-yl)ethyl)cyclohexyl)benzamide]"
0.05 nM,2.7 nM,> 1000 nM,2.5 nM,CCC(=O)N[C@H]1CC[C@H](CCN2CCN(c3cc(-c4cccnc4)cc(N4CCOCC4)n3)CC2)CC1 [IV-1]
0.1 nM,1.9 nM,950 nM,1.2 nM,"CCCC(=O)N[C@H]1CC[C@H](CCN2CCN(c3cc(-c4ccccc4)cc(N4CCOCC4)n3)CC2)CC1 [Compound I-2, N-(trans-4-(2-(4-(6-morpholino-4-phenylpyridin-2-yl)piperazin-1-yl)ethyl)cyclohexyl)butyramide]"
0.7 nM,1.6 nM,530 nM,8.1 nM,"CC(=O)N[C@H]1CC[C@H](CCN2CCN(c3cc(-c4ccco4)cc(N4CCOCC4)n3)CC2)CC1 [Compound V-1, N-(trans-4-(2-(4-(4-(furan-2-yl)-6-morpholinopyridin-2-yl)piperazin-1-yl)ethyl)cyclohexyl)acetamide]"
0.3 nM,2.8 nM,> 1000 nM,10.6 nM,"O=C(N[C@H]1CC[C@H](CCN2CCN(c3cc(-c4ccco4)cc(N4CCOCC4)n3)CC2)CC1)N1CCCCC1 [Compound V-4, N-(trans-4-(2-(4-(4-(furan-2-yl)-6-morpholinopyridin-2-yl)piperazin-1-yl)ethyl)cyclohexyl)piperidine-1-carboxamide]"
0.07 nM,5.1 nM,> 1000 nM,1.9 nM,"COc1ccc(-c2cc(N3CCOCC3)nc(N3CCN(CC[C@H]4CC[C@H](NC(=O)N5CCOCC5)CC4)CC3)c2)cc1 [III-2, N-(trans-4-(2-(4-(4-(4-methoxyphenyl)-6-morpholinopyridin-2-yl)piperazin-1-yl)ethyl)cyclohexyl)morpholine-4-carboxamide]"
0.2 nM,1.7 nM,760 nM,3.1 nM,"CC(=O)N[C@H]1CC[C@H](CCN2CCN(c3cc(-c4ccccc4)cc(N4CCOCC4)n3)CC2)CC1 [Compound I-1, N-(trans-4-(2-(4-(6-morpholino-4-phenylpyridin-2-yl)piperazin-1-yl)ethyl)cyclohexyl)acetamide]"
0.5 nM,12.5 nM,> 1000 nM,4.6 nM,"COc1ccc(-c2cc(N3CCOCC3)nc(N3CCN(CC[C@H]4CC[C@H](NC(=O)N5CCCCC5)CC4)CC3)c2)cc1 [III-3, N-(trans-4-(2-(4-(4-(4-methoxyphenyl)-6-morpholinopyridin-2-yl)piperazin-1-yl)ethyl)cyclohexyl)piperidine-1-carboxamide]"
0.3 nM,7.9 nM,> 1000 nM,4 nM,"O=C(N[C@H]1CC[C@H](CCN2CCN(c3cc(-c4ccc[nH]4)cc(N4CCOCC4)n3)CC2)CC1)N1CCCCC1 [VII-5, N-(trans-4-(2-(4-(6-morpholino-4-(1H-pyrrol-2-yl)pyridin-2-yl)piperazin-1-yl)ethyl)cyclohexyl)piperidine-1-carboxamide]"
0.9 nM,1.1 nM,> 1000 nM,8.6 nM,O=C(N[C@H]1CC[C@H](CCN2CCN(c3cc(-c4ccccc4)cc(N4CCOCC4)n3)CC2)CC1)C1CCCCC1 [Compound I-5]
0.09 nM,1.2 nM,980 nM,1.4 nM,"O=C(N[C@H]1CC[C@H](CCN2CCN(c3cc(-c4ccc(F)cc4)cc(N4CCOCC4)n3)CC2)CC1)c1ccco1 [II-3, N-(trans-4-(2-(4-(4-(4-fluorophenyl)-6-morpholinopyridin-2-yl)piperazin-1-yl)ethyl)cyclohexyl)furan-2-carboxamide]"
0.08 nM,2.1 nM,> 1000 nM,1.3 nM,"O=C(N[C@H]1CC[C@H](CCN2CCN(c3cc(-c4cccs4)cc(N4CCOCC4)n3)CC2)CC1)C1CC1 [VI-2, N-(trans-4-(2-(4-(6-morpholino-4-(thiophen-2-yl)pyridin-2-yl)piperazin-1-yl)ethyl)cyclohexyl)cyclopropanecarboxamide]"
,8.8 nM,740 nM,15.2 nM,"COCC(=O)N[C@H]1CC[C@H](CCN2CCN(c3cc(-c4ccco4)cc(N4CCOCC4)n3)CC2)CC1 [Compound V-2, N-(trans-4-(2-(4-(4-(furan-2-yl)-6-morpholinopyridin-2-yl)piperazin-1-yl)ethyl)cyclohexyl)-2-methoxyacetamide]"
,,300 nM,,"CN(C)C(=O)N[C@H]1CC[C@H](CCN2CCN(c3cc(-c4ccc(F)cc4)cc(N4CCOCC4)n3)CC2)CC1 [II-5, 3-(trans-4-(2-(4-(4-(4-fluorophenyl)-6-morpholinopyridin-2-yl)piperazin-1-yl)ethyl)cyclohexyl)-1,1-dimethylurea]"
,3.8 nM,870 nM,5.1 nM,"O=C(N[C@H]1CC[C@H](CCN2CCN(c3cc(-c4ccc[nH]4)cc(N4CCOCC4)n3)CC2)CC1)C1CCCCC1 [VII-3, N-(trans-4-(2-(4-(6-morpholino-4-(1H-pyrrol-2-yl)pyridin-2-yl)piperazin-1-yl)ethyl)cyclohexyl)cyclohexanecarboxamide]"
